Test results reported in ChEMBL document CHEMBL1909046, “DrugMatrix in vitro pharmacology data”.

Tests used:
[1] = target: T1, B2 bradykinin receptor (Homo sapiens, UniProt P30411); type: cell membranes, Membrane; conditions: chem-1; note: in other assays of this panel Not Active means under 50% inhibition at 10 µM
T1 sequence (P30411 whole entry): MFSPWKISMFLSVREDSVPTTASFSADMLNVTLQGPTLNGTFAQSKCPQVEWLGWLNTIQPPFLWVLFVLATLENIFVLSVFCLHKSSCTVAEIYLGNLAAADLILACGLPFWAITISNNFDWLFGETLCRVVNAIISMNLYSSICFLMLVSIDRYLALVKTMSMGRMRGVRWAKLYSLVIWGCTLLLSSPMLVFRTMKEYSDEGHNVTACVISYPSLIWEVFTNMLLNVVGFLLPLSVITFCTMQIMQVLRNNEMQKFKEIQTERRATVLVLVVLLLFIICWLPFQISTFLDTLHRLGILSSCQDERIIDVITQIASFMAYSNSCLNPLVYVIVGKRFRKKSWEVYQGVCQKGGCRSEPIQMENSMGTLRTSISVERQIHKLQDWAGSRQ

[2] = target: Mitogen-activated protein kinase 14 (Homo sapiens, UniProt Q16539); parameters: species or system Escherichia coli;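 note: inhibition of p38alpha enzyme activity in a biochemical kinase assay, with myelin basic protein serving as substrate; in other assays of this panel Not Active means under 50% inhibition at 10 µM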
[3] = target: T2, Cathepsin G (Homo sapiens, UniProt P08311); type: tissue-based; conditions: neutrophil;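 note: inhibition of Cathepsin G enzyme activity, tested on an AMC-conjugated peptide substrate; in other assays of this panel Not Active means under 50% inhibition at 10 µM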
T2 sequence (P08311 whole entry): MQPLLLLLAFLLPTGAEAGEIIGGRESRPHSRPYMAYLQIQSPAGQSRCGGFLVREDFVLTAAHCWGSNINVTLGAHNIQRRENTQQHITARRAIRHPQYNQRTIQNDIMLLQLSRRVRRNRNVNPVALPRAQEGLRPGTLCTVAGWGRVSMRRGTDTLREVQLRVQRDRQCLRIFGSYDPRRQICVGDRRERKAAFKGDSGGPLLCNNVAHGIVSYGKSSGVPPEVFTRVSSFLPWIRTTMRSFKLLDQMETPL

[4] = DRUGMATRIX: Platelet-Derived Growth Factor (PDGF) radioligand binding (ligand: [125I] PDGF); type: cell-based; conditions: nih3t3; Not Active = under 50% inhibition at 10 µM
[5] = target: T3, Glucocorticoid receptor (Homo sapiens, UniProt P04150); conditions: hela s3; note: in other assays of this panel Not Active means under 50% inhibition at 10 µM
T3 sequence (P04150 whole entry): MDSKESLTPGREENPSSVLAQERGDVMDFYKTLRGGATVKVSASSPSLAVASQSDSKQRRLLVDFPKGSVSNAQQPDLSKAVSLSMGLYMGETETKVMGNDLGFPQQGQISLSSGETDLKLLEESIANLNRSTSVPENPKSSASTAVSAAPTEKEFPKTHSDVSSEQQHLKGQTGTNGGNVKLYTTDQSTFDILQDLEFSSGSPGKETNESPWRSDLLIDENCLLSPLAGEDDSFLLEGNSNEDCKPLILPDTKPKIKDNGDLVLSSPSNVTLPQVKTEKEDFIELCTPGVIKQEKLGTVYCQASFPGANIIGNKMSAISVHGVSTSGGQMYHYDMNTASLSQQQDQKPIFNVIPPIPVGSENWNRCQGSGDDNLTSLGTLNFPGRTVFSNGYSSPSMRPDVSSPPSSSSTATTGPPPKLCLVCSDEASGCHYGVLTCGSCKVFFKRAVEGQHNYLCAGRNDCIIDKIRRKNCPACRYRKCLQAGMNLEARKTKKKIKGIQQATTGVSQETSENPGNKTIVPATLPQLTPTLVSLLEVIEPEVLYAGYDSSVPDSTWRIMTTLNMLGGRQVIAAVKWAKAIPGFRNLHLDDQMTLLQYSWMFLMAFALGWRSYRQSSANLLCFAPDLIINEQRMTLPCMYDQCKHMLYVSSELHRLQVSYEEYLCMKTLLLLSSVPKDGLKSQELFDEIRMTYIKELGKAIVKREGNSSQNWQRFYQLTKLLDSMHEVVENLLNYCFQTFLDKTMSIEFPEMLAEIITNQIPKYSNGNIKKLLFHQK

[6] = DRUGMATRIX: Tumor Necrosis Factor (TNF), Non-Selective radioligand binding (ligand: [125I] TNF-alpha); type: cell membranes, Membrane; conditions: u-937; Not Active = under 50% inhibition at 10 µM
[7] = DRUGMATRIX: Nicotinic Acetylcholine radioligand binding (ligand: [125I] Epibatidine); type: cell membranes, Membrane; conditions: imr-32; Not Active = under 50% inhibition at 10 µM
[8] = target: T4, Alpha-1D adrenergic receptor (Homo sapiens, UniProt P25100); type: cell membranes, HEK293, Membrane; note: in other assays of this panel Not Active means under 50% inhibition at 10 µM
T4 sequence (P25100 whole entry): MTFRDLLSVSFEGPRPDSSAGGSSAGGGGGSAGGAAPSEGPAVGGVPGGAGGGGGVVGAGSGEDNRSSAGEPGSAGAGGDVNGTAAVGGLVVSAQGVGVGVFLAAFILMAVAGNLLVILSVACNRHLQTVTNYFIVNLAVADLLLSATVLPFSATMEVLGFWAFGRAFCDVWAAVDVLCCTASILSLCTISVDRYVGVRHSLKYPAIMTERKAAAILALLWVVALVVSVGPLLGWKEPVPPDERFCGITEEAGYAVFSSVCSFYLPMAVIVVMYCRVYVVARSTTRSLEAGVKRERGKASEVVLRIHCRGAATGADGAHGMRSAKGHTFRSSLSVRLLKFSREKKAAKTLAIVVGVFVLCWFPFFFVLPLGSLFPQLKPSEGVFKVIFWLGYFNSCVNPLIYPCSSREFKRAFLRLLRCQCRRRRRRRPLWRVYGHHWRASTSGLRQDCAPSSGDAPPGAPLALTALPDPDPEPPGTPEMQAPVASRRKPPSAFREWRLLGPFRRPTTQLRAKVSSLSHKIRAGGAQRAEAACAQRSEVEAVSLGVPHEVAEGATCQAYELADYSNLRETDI

Mitogen-activated protein kinase 14, sequence (Q16539 whole entry): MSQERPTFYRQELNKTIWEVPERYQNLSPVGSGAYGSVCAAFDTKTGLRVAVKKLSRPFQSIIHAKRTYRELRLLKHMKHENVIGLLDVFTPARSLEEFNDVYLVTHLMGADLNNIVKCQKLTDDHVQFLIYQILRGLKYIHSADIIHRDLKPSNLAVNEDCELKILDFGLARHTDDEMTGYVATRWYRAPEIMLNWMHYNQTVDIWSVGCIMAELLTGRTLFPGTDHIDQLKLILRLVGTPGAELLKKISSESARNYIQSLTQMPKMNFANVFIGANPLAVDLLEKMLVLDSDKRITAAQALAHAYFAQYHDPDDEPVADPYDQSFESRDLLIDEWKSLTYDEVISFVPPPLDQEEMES

In the case of `C[C@@H]1O[C@@H](O[C@H]2C[C@@H](O)[C@]3(CO)[C@H]4[C@H](O)C[C@]5(C)[C@@H](C6=CC(=O)OC6)CC[C@]5(O)[C@@H]4CC[C@]3(O)C2)[C@H](O)[C@H](O)[C@H]1O` [OUABAIN], the IC50 [1] is reported as “Not Active”, the IC50 [2] is reported as “Not Active” and the IC50 [3] is reported as “Not Active”. The IC50 [4] was “Not Active”, the Ki [4] was “Not Active” and the IC50 [5] was “Not Active”. The IC50 [6] was “Not Active”, the Ki [6] was “Not Active” and the IC50 [7] was “Not Active”. The Ki [7] was “Not Active” and the IC50 ([8]; hek293) was “Not Active”.
For `COc1ccnc(C[S+]([O-])c2nc3ccc(OC(F)F)cc3[nH]2)c1OC` (stereo unspecified) [PANTOPRAZOLE], the IC50 [1] was “Not Active”, the IC50 [2] was “Not Active” and the IC50 [3] was “Not Active”. For the same molecule, the IC50 [4] was “Not Active”, the Ki [4] was “Not Active” and the IC50 [5] was “Not Active”. For the same molecule, the IC50 [6] was “Not Active”, the Ki [6] was “Not Active” and the IC50 [7] was “Not Active”. The Ki [7] was “Not Active” and the IC50 ([8]; hek293) was “Not Active”.
In the case of `N=C(N)c1ccc(OCCCCCOc2ccc(C(=N)N)cc2)cc1` [PENTAMIDINE], the IC50 [1] is reported as “Not Active”, the IC50 [2] is reported as “Not Active” and the IC50 [3] is reported as “Not Active”. For the same molecule, the IC50 [4] was “Not Active”, the Ki [4] was “Not Active” and the IC50 [5] was “Not Active”. For the same molecule, the IC50 [6] was “Not Active”, the Ki [6] was “Not Active” and the IC50 [7] was “Not Active”. The Ki [7] was “Not Active” and the IC50 ([8]; hek293) was “Not Active”.
For `NNCCc1ccccc1` [PHENELZINE], the IC50 [1] was “Not Active”, the IC50 [2] was “Not Active” and the IC50 [3] was “Not Active”. The IC50 [4] was “Not Active”, the Ki [4] was “Not Active” and the IC50 [5] was “Not Active”. The IC50 [6] was “Not Active”, the Ki [6] was “Not Active” and the IC50 [7] was “Not Active”. For the same molecule, the Ki [7] was “Not Active” and the IC50 ([8]; hek293) was “Not Active”.
For `CCc1ccc(CCOc2ccc(CC3SC(=O)NC3=O)cc2)nc1` (stereo unspecified) [PIOGLITAZONE], the IC50 [1] was “Not Active”, the IC50 [2] was “Not Active” and the IC50 [3] was “Not Active”. The IC50 [4] was “Not Active”, the Ki [4] was “Not Active” and the IC50 [5] was “Not Active”. The IC50 [6] was “Not Active”, the Ki [6] was “Not Active” and the IC50 [7] was “Not Active”. For the same molecule, the Ki [7] was “Not Active” and the IC50 ([8]; hek293) was “Not Active”.
With `CCCNC(C)C(=O)Nc1ccccc1C` (stereo unspecified) [PRILOCAINE] the IC50 [1] was “Not Active”, the IC50 [2] was “Not Active” and the IC50 [3] was “Not Active”. For the same molecule, the IC50 [4] was “Not Active”, the Ki [4] was “Not Active” and the IC50 [5] was “Not Active”. The IC50 [6] was “Not Active”, the Ki [6] was “Not Active” and the IC50 [7] was “Not Active”. The Ki [7] was “Not Active” and the IC50 ([8]; hek293) was “Not Active”.
In the case of `CCN(CC)CCCC(C)Nc1c2ccc(Cl)cc2nc2ccc(OC)cc12` (stereo unspecified) [QUINACRINE], the IC50 [1] is reported as “Not Active”, the IC50 [2] is reported as “Not Active” and the IC50 [3] is reported as “Not Active”. The IC50 [4] was “Not Active”, the Ki [4] was “Not Active” and the IC50 [5] was “Not Active”. For the same molecule, the IC50 [6] was “Not Active”, the Ki [6] was “Not Active” and the IC50 [7] was “Not Active”. For the same molecule, the Ki [7] was “Not Active”, the IC50 ([8]; read-out: IC50) was 2070 nM and the Ki ([8]; read-out: Ki) was 1020 nM.
For `CC[C@]1(O)C[C@@H]2CN(CCc3c([nH]c4ccccc34)[C@@](C(=O)OC)(c3cc4c(cc3OC)N(C)[C@H]3[C@@](O)(C(N)=O)[C@H](O)[C@]5(CC)C=CCN6CC[C@]43[C@@H]65)C2)C1` [VINDESINE], the IC50 [1] was “Not Active”, the IC50 [2] was “Not Active” and the IC50 [3] was “Not Active”. The IC50 [4] was “Not Active”, the Ki [4] was “Not Active” and the IC50 [5] was “Not Active”. The IC50 [6] was “Not Active”, the Ki [6] was “Not Active” and the IC50 [7] was “Not Active”. For the same molecule, the Ki [7] was “Not Active” and the IC50 ([8]; hek293) was “Not Active”.
For COBALTOUS CHLORIDE, the IC50 [1] was “Not Active”, the Ki [1] was “Not Active” and the IC50 [2] was “Not Active”. The Ki [2] was “Not Active”, the IC50 [3] was “Not Active” and the Ki [3] was “Not Active”. The IC50 [4] was “Not Active”, the Ki [4] was “Not Active” and the IC50 [5] was “Not Active”. For the same molecule, the Ki [5] was “Not Active”, the IC50 [6] was “Not Active” and the Ki [6] was “Not Active”. The IC50 [7] was “Not Active”, the Ki [7] was “Not Active” and the IC50 ([8]; hek293) was “Not Active”. The Ki ([8]; hek293) was “Not Active”.
In the case of COLISTIN, the IC50 [1] is reported as “Not Active”, the Ki [1] is reported as “Not Active” and the IC50 [2] is reported as “Not Active”. The Ki [2] was “Not Active”, the IC50 [3] was “Not Active” and the Ki [3] was “Not Active”. The IC50 [4] was “Not Active”, the Ki [4] was “Not Active” and the IC50 [5] was “Not Active”. For the same molecule, the Ki [5] was “Not Active”, the IC50 [6] was “Not Active” and the Ki [6] was “Not Active”. For the same molecule, the IC50 [7] was “Not Active”, the Ki [7] was “Not Active” and the IC50 ([8]; hek293) was “Not Active”. The Ki ([8]; hek293) was “Not Active”.
